Results: patent US20250188033A1, “INHIBITOR OF REPLICATION PROTEIN A1 OF TRYPANOSOMA BRUCEI AND METHOD OF USE THEREOF” (Research Foundation of the City University of New York, published 2025)
Like-named read-outs stand apart in the source and are kept apart here.

Columns and labels:
Trypanosoma brucei = test: ALAMARBLUE cell viability / growth assay of T. brucei cells; assay type: cell-based
Procedure: To determine cell growth rate, WT and two TbRPA1 RNAi KD strains (KD1 and KD2) were seeded at a density of 1×10^5 cells/ml and cultured with or without tetracycline for the induction of RNAi. Cells were counted every 12 hours for 2 days. To determine the viability of TbRPA1-depleted cells, ALAMARBLUE® assay (Thermo Fisher, an established colorimetric technique that detects metabolically active cells) was used. Cells from each time point were incubated with ALAMARBLUE® dye for 4-6 hours and percentage of live cells was determined by measuring resorufin converted from resazurin by reducing environment of live cells. Synergy H1 microplate reader (BioTek) was used with 560/590 nm (excitation/emission) filter settings and Relative Fluorescence Unit (RFU) values were obtained. The percentage of viable cells were calculated from the RFU values.
The initial assessment of JC-229's inhibitory effect on T. brucei cell growth was performed at 50 μM concentration. Trypanosome cells were seeded at 1×10^3 cells/ml density in 180 μl in a 96-well culture plate in triplicate. These cells were incubated with 50 μM JC-229 for 24, 48, and 72 hours. DMSO was used as a vehicle control at 0.0075%. JC-229-treated culture and control cultures were analyzed with the ALAMARBLUE® dye as described above.
To obtain the EC50 value of JC-229, T. brucei cells were seeded at 1×10^3 cells/ml density in 180 μl in a 96-well culture plate in triplicate. These cells were incubated for 72 hours with increasing concentrations of JC-229, (0.5 μM to 50 μM) and cell viability was determined using the ALAMARBLUE® dye as described above.
Trypanosoma brucei cytotoxicity of JC-229 and analogs were measured using ALAMARBLUE® assay (Rampersad, S. N. Multiple applications of ALAMARBLUE® as an indicator of metabolic function and cellular health in cell viability bioassays. Sensors (Basel) 12, 12347-12360 (2012). Trypanosome cells were seeded at 1×10^3 cells/ml density in 180 μl in a 96-well culture plate in triplicate. These cells were incubated with indicated concentration of JC compounds for 72 hours. DMSO was used as a vehicle control at 0.0075%. JC compound-treated cultures were then incubated with ALAMARBLUE® dye for 4-6 hours and percentage of live cells was determined using Synergy H1 microplate reader (BioTek) with 560/590 nm (excitation/emission) filter settings and Relative Fluorescence Unit (RFU) values were obtained. The percentage of viable cells were calculated from the RFU values by normalizing to DMSO treated control. In one embodiment, the inhibitor is characterized in that it provides at least 50%, at least 80% or at least 90% inhibition at a concentration of 5 μM when tested in accordance with the above conditions.

HEK293 cells = test: ALAMARBLUE cell viability assay of human cells (HEK293); assay type: cell-based
Procedure: (§1) Human cell lines, HeLa and HEK293 were maintained in Dulbecco's modified MEM (D-MEM, GIBCO) supplemented with 10% fetal bovine serum (GIBCO) at 37° C. with 5% CO2.
(§2) To determine the inhibitory effect of JC-229 on human cells, HeLa and HEK293 cells were suspended in 180 μl D-MEM with 10% FBS and plated at a density of 2×10^4 cells/ml in triplicate. Cells were adhered overnight, and the medium was replaced, and cells were then incubated for 72 hours with increasing concentrations of JC-229 (0.5 μM to 50 μM) and cell viability was determined using the ALAMARBLUE® dye as described above. Percent viability was plotted using GraphPad Prism software. […] The EC50 values were estimated using the concentration of JC-229 that cause 50% reduction of cell viability (inhibitor vs. normalized response, variable slope).

HeLa cells = test: ALAMARBLUE cell viability assay of human cells (HeLa); assay type: cell-based
Procedure: as §1, §2

T. brucei cells [1] = test: Cell-cycle analysis by PI staining and flow cytometry; assay type: cell-based, Trypanosoma brucei; details: 10 μM
Procedure: (§3) Without wishing to be bound to any particular theory, if JC-229 indeed binds and inhibits the functions of TbRPA1, as predicted from the structural model, JC-229-treated trypanosome cells should show similar phenotypes to TbRPA1-depleted cells without affecting TbRPA1 protein levels. Wild-type T. brucei cells was treated with 10 μM JC-229 for 48 hours and the cell-cycle profile and efficiency of DNA synthesis was monitored. TbRPA1, γH2A, VSG3, and Tubulin protein levels were also monitored (FIG. 3A, FIG. 3B, FIG. 3C and FIG. 3D).
About 10 million cells were collected after tetracycline induction or after JC-229 treatment. Cells were fixed with ice-cold 70% ethanol and incubated with 50 μg/ml PI (Sigma-Aldrich) and 200 μg/ml RNase A (Sigma-Aldrich) in 1×PBS (Corning) at 37° C. for 30 min in the dark. Samples were analyzed by flow cytometry (FACSVia, BD Biosciences) and FLOWJO®.

T. brucei cells [2] = test: Immunoblotting of TbRPA1, γH2A and VSG3 protein levels; assay type: cell-based, Trypanosoma brucei; details: 10 μM; for fold increase in the levels of γH2A: relative to untreated, normalized to tubulin
Procedure: as §3
Cells were harvested at indicated time points and suspended in Laemmli buffer (Bio-Rad) at 0.25 million cells per μl. Denatured proteins from whole cells were separated on a 4-20% gradient SDS-PAGE gel (BioRAD) and transferred to nitrocellulose membrane (GE Healthcare). The membranes were probed with polyclonal antibodies against TbRPA1 (a gift from Bibo Li laboratory) or γH2A (generated by ABclonal for this study), or monoclonal mouse antibodies against VSG3 (Antibody and Bioresource Core facility, MSKCC) or tubulin (Sigma) in 1× PBS with 0.1% Tween 20 and 1% milk (BioRAD) at 4° C. overnight. The membranes were then incubated with secondary antibodies conjugated with Horseradish Peroxidase (HRP) (GE healthcare) for the detection of corresponding proteins using chemiluminescence (Hyglo from Denville Scientific, ChemiDoc Imaging System from BioRAD).

[3] = T. brucei, 2 μM, 72 hours, normalized to DMSO control
[4] = T. brucei, 5 μM, 72 hours, normalized to DMSO control
[5] = T. brucei, 10 μM, 72 hours, normalized to DMSO control

SMILES	% Inhibition @2 μM (Trypanosoma brucei; [3]) [%]	% Inhibition @5 μM (Trypanosoma brucei; [4]) [%]	% Inhibition @10 μM (Trypanosoma brucei; [5]) [%]	other results
Cc1ccc(C(=O)Nc2ccc(Cl)c(Cl)c2)cc1S(=O)(=O)N1CCC(NC(=S)Nc2ccccc2F)CC1 [JC-1018]	100	100	–	–
Cc1ccc(C(=O)Nc2ccc(Cl)c(Cl)c2)cc1S(=O)(=O)NCCN(C)C [JC-871]	−3	–	79	–
Cc1ccc(C(=O)Nc2ccc(Cl)c(Cl)c2)cc1S(=O)(=O)NCCCCCCO [JC-898]	6	–	57	–
Cc1ccc(C(=O)Nc2ccc(Cl)c(Cl)c2)cc1S(=O)(=O)NC(Cc1ccccc1)C(N)=O (stereo not shown) [JC-869]	−34	–	30	–
Cc1ccc(C(=O)Nc2ccc(Cl)c(Cl)c2)cc1S(=O)(=O)N1CCCC(N)C1.O=C(O)C(F)(F)F (stereo not shown) [JC-959]	64	100	–	–
Cc1ccc(C(=O)Nc2ccc(Cl)c(Cl)c2)cc1S(=O)(=O)NCCCCO [JC-895]	10	–	45	–
Cc1ccc(C(=O)Nc2ccc(Cl)c(Cl)c2)cc1S(=O)(=O)Nc1cc[nH]n1 [JC-902]	14	–	56	–
Cc1ccc(C(=O)Nc2ccc(Cl)c(Cl)c2)cc1S(=O)(=O)NCCNC(=S)Nc1ccccc1F [JC-1001]	49	66	–	–
Cc1ccc(C(=O)Nc2ccc(Cl)c(Cl)c2)cc1S(=O)(=O)N1CCCC(NC(=S)Nc2ccc(F)cc2)C1 (stereo not shown) [JC-965]	64	100	–	–
COc1ccc(NC(=S)NCCNS(=O)(=O)c2cc(C(=O)Nc3ccc(Cl)c(Cl)c3)ccc2C)cc1 [JC-999]	−7	−6	–	–
Cc1ccc(C(=O)Nc2ccc(Cl)c(Cl)c2)cc1S(=O)(=O)N1CCC(NS(=O)(=O)c2ccc(Br)cc2)CC1 [JC-1014]	100	100	–	–
Cc1ccc(C(=O)Nc2ccc(Cl)c(Cl)c2)cc1S(=O)(=O)NCCN.O=C(O)C(F)(F)F [JC-918]	−20	–	56	–
Cc1ccc(C(=O)Nc2ccc(Cl)c(Cl)c2)cc1S(=O)(=O)NCCNS(=O)(=O)c1ccc(OCc2ccccc2)cc1 [JC-997]	−9	92	–	–
Cc1ccc(C(=O)Nc2ccc(Cl)c(Cl)c2)cc1S(=O)(=O)Nc1cnc2ccccc2c1 [JC-914]	−7	–	−3	–
Cc1ccc(C(=O)Nc2ccc(Cl)c(Cl)c2)cc1S(=O)(=O)NCCCc1ccccc1 [JC-908]	18	–	62	–
CCOc1ccc2cc(C3CC(c4ccc(Br)cc4)=NN3C(=O)CCC(=O)O)c(Cl)nc2c1 (stereo not shown) [TDRL-505, reference compound]	–	–	–	effect on T. brucei proliferation (Trypanosoma brucei; even at 60 μM): no effect
Cc1ccc(C(=O)Nc2ccc(Cl)c(Cl)c2)cc1S(=O)(=O)NCCCNC(=O)OC(C)(C)C [JC-932]	7	–	73	–
Cc1ccc(C(=O)Nc2nc3ccccc3[nH]2)cc1S(=O)(=O)Nc1ccc(Cl)c(Cl)c1 [JC-865]	−1	–	55	–
Cc1ccc(C(=O)Nc2ccc(Cl)c(Cl)c2)cc1S(=O)(=O)Nc1ccc(Cl)c(Cl)c1 [JC-229, N-(3,4-dichlorophenyl)-3-(N-(3,4-dichlorophenyl)sulfamoyl)-4-methylbenzamide]	–	–	–	EC50 (Trypanosoma brucei; Trypanosoma brucei, 72 h, read-out: EC50 (T. brucei viability), T. brucei, 0.5 to 50 μM, 72 hours): 6.6 µM; inhibition at 2 µM (Trypanosoma brucei; Trypanosoma brucei, T. brucei, 2 μM, 72 hours, normalized to DMSO control): 24%; inhibition at 5 µM (Trypanosoma brucei; Trypanosoma brucei, T. brucei, 5 μM, 72 hours, normalized to DMSO control): 76%; inhibition at 10 µM (Trypanosoma brucei; Trypanosoma brucei, T. brucei, 10 μM, 72 hours, normalized to DMSO control): 100%; EC50 (Trypanosoma brucei; read-out: EC50 (T. brucei viability), T. brucei, 0.5 to 50 μM, 72 hours): 6.5 µM; EC50 (HEK293 cells; HEK293, 0.5 to 50 μM, 72 hours, estimated, curve did not reach bottom plateau): 18.4 µM; inhibition at 6.5 µM (HEK293 cells; HEK293, at 6.5 μM (EC50 to T. brucei)): < 20%; inhibition at 50 µM (HEK293 cells; HEK293, at 50 μM, the maximum concentration): < 100%; EC50 (HeLa cells; 0.5 to 50 μM, 72 hours, estimated, curve did not reach bottom plateau): 32.1 µM; inhibition at 6.5 µM (HeLa cells; at 6.5 μM (EC50 to T. brucei)): < 20%; inhibition at 50 µM (HeLa cells; at 50 μM, the maximum concentration): < 100%; sub-G1 population (T. brucei cells [1]; 32-hour time point): ~45%; cells that lost the bulk of their DNA (T. brucei cells [1]; by 48 hours): ~97%; fold increase in the levels of γH2A (T. brucei cells [2]; 16 hours): approximately 5 fold; fold increase in VSG3 protein levels (T. brucei cells [2]; 24 hours): ~3 fold; fold increase in the levels of γH2A (T. brucei cells [2]; 24 hours): ~7 fold
Cc1ccc(C(=O)Nc2ccc(Cl)c(Cl)c2)cc1S(=O)(=O)N1CCC(NS(=O)(=O)c2cccc(Br)c2)CC1 [JC-1010]	9	−15	–	–
Cc1ccc(C(=O)Nc2ccc(Cl)c(Cl)c2)cc1S(=O)(=O)NCCNC(=O)[C@H](N)Cc1ccccc1 [JC-922]	−7	–	19	–
Cc1ccc(C(=O)Nc2ccc(Cl)c(Cl)c2)cc1S(=O)(=O)N1CCOCC1 [JC-885]	13	–	38	–
Cc1ccc(C(=O)Nc2ccc(Cl)c(Cl)c2)cc1S(=O)(=O)C1CCC(NC(=O)c2ccccc2)CC1 (stereo not shown) [JC-927]	0	42.4	100	–
Cc1ccc(C(=O)Nc2ccc(Cl)c(Cl)c2)cc1S(=O)(=O)NCCNS(=O)(=O)c1ccc(Br)cc1 [JC-923]	2	100.9	100	–
Cc1ccc(C(=O)Nc2ccc(Cl)c(Cl)c2)cc1S(=O)(=O)NCCCNC(=O)Cc1ccccc1 [JC-934]	11	–	34	–
Cc1ccc(C(=O)Nc2ccc(Cl)c(Cl)c2)cc1S(=O)(=O)N1CCC(NS(=O)(=O)c2cccc(F)c2)CC1 [JC-1012]	36	97	–	–
